This note sets out measurements from patent US20040235752A1, “3-fluoro-pyrrolidines as antidiabetic agents” (priority 2001, published 2004).

The assay deals with DP-IV (Homo sapiens, UniProt P27487). Description: DP-IV inhibition assay according to WO95/15309. The format is biochemical. The settings on record: at concentrations up to 5 μM. On the procedure: Compounds were assayed as inhibitors of DP-IV according to the methods described in WO95/15309.
Sequence of DP-IV (P27487 whole entry): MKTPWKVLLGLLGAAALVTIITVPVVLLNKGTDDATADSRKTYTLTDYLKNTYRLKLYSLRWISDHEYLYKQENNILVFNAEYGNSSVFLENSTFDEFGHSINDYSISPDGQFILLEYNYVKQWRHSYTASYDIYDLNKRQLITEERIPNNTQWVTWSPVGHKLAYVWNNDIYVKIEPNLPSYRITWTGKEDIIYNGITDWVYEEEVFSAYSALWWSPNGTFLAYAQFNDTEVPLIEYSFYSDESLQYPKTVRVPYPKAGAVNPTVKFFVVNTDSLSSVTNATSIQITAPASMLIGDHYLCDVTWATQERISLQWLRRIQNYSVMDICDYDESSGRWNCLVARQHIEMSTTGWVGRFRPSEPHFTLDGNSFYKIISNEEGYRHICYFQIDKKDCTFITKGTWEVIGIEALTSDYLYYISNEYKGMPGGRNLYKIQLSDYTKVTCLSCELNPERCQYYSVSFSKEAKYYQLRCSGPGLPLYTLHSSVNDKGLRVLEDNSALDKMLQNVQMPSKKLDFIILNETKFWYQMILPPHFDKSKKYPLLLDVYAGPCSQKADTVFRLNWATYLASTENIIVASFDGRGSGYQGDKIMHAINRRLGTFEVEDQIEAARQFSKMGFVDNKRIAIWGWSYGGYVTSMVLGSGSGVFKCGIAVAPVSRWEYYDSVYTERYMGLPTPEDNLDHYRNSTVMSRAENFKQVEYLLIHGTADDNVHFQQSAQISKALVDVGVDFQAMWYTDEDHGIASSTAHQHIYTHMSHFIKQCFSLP

In the case of `CC(=O)OC(C)OC(=O)N[C@@H](CCCNC(=O)c1cnccn1)C(=O)N1CC(F)(F)C[C@H]1C#N` (stereo partly drawn) [Example 7, (2S)-1-[N^α-(1′-Acetoxyethoxycarbonyl)-N^ω-(pyrazinyl-2-carbonyl)-L-ornithinyl]-4,4-difluoropyrrolidine-2-carbonitrile], the “inhibition of DP-IV” value is “do not show significant inhibition”.

Consider `CC(=O)OCOC(=O)N[C@@H](CCCNC(=O)c1cnc(Cl)c(Cl)c1)C(=O)N1CCC(F)(F)C1` [Example 8, 1-[N^α-(Acetoxymethoxycarbonyl)-N^ω-(5,6-dichloronicotinoyl)-L-ornithinyl]-3,3-difluoropyrrolidine], for which the “inhibition of DP-IV” value is on record as “do not show significant inhibition”.
